Test results taken from patent US8148367B2 (Takeda Pharmaceutical Company Limited, priority 2008, dated 2012).

Molecular target: T1, Recombinant human renin (Homo sapiens, UniProt P00797)
T1 construct: isolate the active form (residues 67-406); made in house; host or cells: FreeStyle 293-F cells, transient expression of pcDNA3.1(+)/hREN
T1 sequence (P00797 67-406): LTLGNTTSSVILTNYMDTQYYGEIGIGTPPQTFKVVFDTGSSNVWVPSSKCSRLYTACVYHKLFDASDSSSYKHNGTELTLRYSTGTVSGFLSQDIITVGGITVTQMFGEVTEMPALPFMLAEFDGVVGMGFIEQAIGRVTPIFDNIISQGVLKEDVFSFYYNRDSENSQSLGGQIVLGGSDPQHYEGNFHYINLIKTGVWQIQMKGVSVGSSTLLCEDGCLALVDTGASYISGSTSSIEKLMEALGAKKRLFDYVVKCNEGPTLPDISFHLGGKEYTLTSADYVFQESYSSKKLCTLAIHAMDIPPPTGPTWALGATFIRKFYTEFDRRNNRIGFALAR
Assay: In vitro enzymatic activity assay of renin inhibitors (fluorescence, QXL520/HiLyteFluo488 peptide substrate)
Type: biochemical
Conditions: recombinant human renin 3 nM, 1 μM substrate, pre-incubated 10 minutes at 37° C., incubation one hour, pH 7.4, 5% DMSO; read-out: IC50 of Exemplified Compounds Against Renin

SMILES | IC50
O=C(c1[nH]c(=O)n(-c2ccccc2)c1C1CC1)N1CCNCC1 [Example 24, 5-Cyclopropyl-1-phenyl-4-(piperazine-1-carbonyl)-1H-imidazol-2(3H)-one] | > 1000 nM
C=CCn1c(C(=O)N2CCNCC2)c(-c2ccccc2)n(-c2ccccc2C)c1=O [Example 141, 1-Allyl-4-phenyl-5-(piperazine-1-carbonyl)-3-o-tolyl-1H-imidazol-2(3H)-one] | > 1000 nM
O=C(c1c(-c2ccccc2)n(-c2cccc(N3CCOCC3)c2)c(=O)n1CCCNS(=O)(=O)c1cccc(Cl)c1)N1CCNCC1 [Example 195, 3-Chloro-N-(3-(3-(3-morpholinophenyl)-2-oxo-4-phenyl-5-(piperazine-1-carbonyl)-2,3-dihydro-1H-imidazol-1-yl)propyl)benzenesulfonamide] | 500 to 1000 nM
COc1ccccc1NC(=O)NCCn1c(C(=O)N2CCNCC2)c(-c2ccccc2)n(-c2ccccc2C)c1=O [Example 214, 1-(2-Methoxyphenyl)-3-(2-(2-oxo-4-phenyl-5-(piperazine-1-carbonyl)-3-o-tolyl-2,3-dihydro-1H-imidazol-1-yl)ethyl)urea] | 500 to 1000 nM
O=C(c1[nH]c(=O)n(-c2ccccc2)c1-c1ccc(Cl)cc1)N1CCNCC1 [Example 28, 5-(4-Chlorophenyl)-1-phenyl-4-(piperazine-1-carbonyl)-1H-imidazol-2(3H)-one] | > 1000 nM
Cc1ccccc1-n1c(-c2ccccc2)c(C(=O)N2CCNCC2)n(CCNC(=O)Nc2ccc(Cl)cc2)c1=O [Example 213, 1-(4-Chlorophenyl)-3-(2-(2-oxo-4-phenyl-5-(piperazine-1-carbonyl)-3-o-tolyl-2,3-dihydro-1H-imidazol-1-yl)ethyl)urea] | 100 to 500 nM
O=C(c1[nH]c(=O)n(C2CCCCC2)c1-c1ccccc1)N1CCCNCC1 [Example 89, 1-Cyclohexyl-4-(1,4-diazepane-1-carbonyl)-5-phenyl-1H-imidazol-2(3H)-one] | > 1000 nM
CCCCS(=O)(=O)Nc1ccccc1-n1c(-c2ccccc2)c(C(=O)N2CCNC[C@H]2Cc2ccccc2)[nH]c1=O [Example 128, (R)—N-(2-(4-(2-Benzylpiperazine-1-carbonyl)-2-oxo-5-phenyl-2,3-dihydro-1H-imidazol-1-yl)phenyl)butane-1-sulfonamide] | < 100 nM
O=C(c1[nH]c(=O)n(C2CCCCC2)c1-c1ccccc1)N1CCNC[C@H]1Cc1ccccc1 [Example 111, (R)-4-(2-Benzylpiperazine-1-carbonyl)-1-cyclohexyl-5-phenyl-1H-imidazol-2(3H)-one] | < 100 nM
